IC50 data for 19 compounds are collected here from patent US7420001B2 (Wyeth, priority 2003, dated 2008).

Structures are written as SMILES. Read-outs that look alike come from different tables or passages of the source.

The target in one test is T1, MMP-12 (Homo sapiens, UniProt P39900).
T1 construct: made in house
The test is described as follows: In vitro fluorescence assay of MMP-12 activity. The format is biochemical. The following applies: recombinant human MMP-12.

In the next test the target is T2, MMP-13 (Homo sapiens, UniProt P45452).
T2 construct: made in house
The test is described as follows: In-vitro fluorescence assay of MMP-13 activity. Format: biochemical.

For the next test, the target named is T3, MMP-1 (Homo sapiens, UniProt P03956).
T3 sequence (P03956 100-269 limits assumed): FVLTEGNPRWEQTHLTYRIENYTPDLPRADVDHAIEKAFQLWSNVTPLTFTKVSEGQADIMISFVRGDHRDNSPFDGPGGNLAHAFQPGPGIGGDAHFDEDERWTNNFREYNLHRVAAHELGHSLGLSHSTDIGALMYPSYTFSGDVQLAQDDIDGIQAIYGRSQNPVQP

In another test the target is T4, MMP-2 (Homo sapiens, UniProt P08253).
T4 construct: purchased Oncogene Research Products (Calbiochem) PF023
T4 sequence (P08253 110-660): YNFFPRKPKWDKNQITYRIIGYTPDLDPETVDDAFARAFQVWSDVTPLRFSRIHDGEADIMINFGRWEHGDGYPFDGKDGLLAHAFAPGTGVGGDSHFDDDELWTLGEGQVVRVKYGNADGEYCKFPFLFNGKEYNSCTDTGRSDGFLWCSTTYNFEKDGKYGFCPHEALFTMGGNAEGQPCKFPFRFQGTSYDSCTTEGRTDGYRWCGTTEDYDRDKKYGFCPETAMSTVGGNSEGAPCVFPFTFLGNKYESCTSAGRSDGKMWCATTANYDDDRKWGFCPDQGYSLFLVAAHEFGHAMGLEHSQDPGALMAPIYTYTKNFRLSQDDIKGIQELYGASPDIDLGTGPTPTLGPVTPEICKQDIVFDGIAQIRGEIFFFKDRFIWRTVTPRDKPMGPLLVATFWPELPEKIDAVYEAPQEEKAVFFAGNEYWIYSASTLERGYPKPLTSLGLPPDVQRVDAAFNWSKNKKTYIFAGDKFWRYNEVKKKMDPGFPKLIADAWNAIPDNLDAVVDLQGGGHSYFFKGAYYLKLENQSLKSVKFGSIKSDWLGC
The test can be described thus: In-vitro fluorescence assay of MMP-2 activity. Format: biochemical. The following applies: recombinant human MMP-2; read-out: MMP-2 IC50.

The target in the next test is T5, MMP-14 (Homo sapiens, UniProt P50281).
T5 construct: 20 kDa; purchased Chemicon International, Inc. CC 1041
The test can be described thus: In-vitro fluorescence assay of MMP-14 activity. Format: biochemical.

The mark [1] stands for this setting: recombinant human catalytic domain of MMP-13, read-out: MMP-13 IC50.
[2] abbreviates: recombinant human catalytic domain of MMP-14.

T1 sequence (P39900 106-280 limits assumed): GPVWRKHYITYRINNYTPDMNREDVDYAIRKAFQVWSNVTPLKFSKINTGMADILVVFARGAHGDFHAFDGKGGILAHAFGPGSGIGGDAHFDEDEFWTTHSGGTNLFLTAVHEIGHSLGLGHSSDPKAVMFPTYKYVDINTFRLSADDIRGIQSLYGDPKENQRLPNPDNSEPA
Method for MMP-12: A continuous, assay was used in which the substrate is a synthetic peptide containing a fluorescent group (7-methoxycoumarin; Mca) which is quenched by energy transfer to a 2,4-dinitrophenyl group. […] The concentration of the substrate stock was spectrophotometrically determined using the extinction coefficient at 410 nm of 7500 M^−1cm^−1. The assay buffer (pH 7.4) consisted of 50 mM Hepes, 100 mM NaCl, 5 mM CaCl2, and 0.005% Brij-35. […] The plates were then incubated at room temperature for 30 minutes. The enzymatic reactions were initiated by adding substrate to a final concentration of 20 μM and they were mixed by pipetting up and down. The final DMSO concentration in the assay was 10% and the final, total assay volume was 200 μl.
Method for MMP-14: A continuous assay was used in which the substrate is a synthetic peptide containing a fluorescent group (7-methoxycoumarin; Mca) which is quenched by energy transfer to a 2,4-dinitrophenyl group. […] The substrate used was Mca-PQGL-(3-[2,4-dinitrophenyl]-L-2,3-diaminopropionyl)-AR-OH (denoted as Wammp-5, custom synthesized by AnaSpec, Inc.). The assay buffer consisted of 50 mM Hepes (pH 7.4), 100 mM NaCl, 5 mM CaCl2, and 0.005% Brij-35. […] The enzymatic reactions were initiated by adding the substrate to a final concentration of 20 μM, and mixing 10 times with a pipette. The final DMSO concentration in the assay was 6.0%.
Plots of the inhibitor concentration vs. the percent inhibition were fit to the following equation: y=(a−d)/[1+(x/c)^b]+d, a general sigmoidal curve with Hill slope, a to d. x is the inhibitor concentration under test. y is the percent inhibition. a is the limiting response as x approaches zero. As x increases without bound, y tends toward its limit d. c is the inflection point (IC50) for the curve. That is, y is halfway between the lower and upper asymptotes when x=c. b is the slope factor or Hill coefficient.

`Cc1c(C(=O)Nc2ccc(-c3ccc(S(=O)(=O)N[C@H](C(=O)O)C(C)C)cc3)cc2)oc2cccc(C#N)c12` [Example 20, L-2-{4′-[(4-Cyano-3-methyl-benzofuran-2-carbonyl)-amino]-biphenyl-4-sulfonylamino}-3-methyl-butyric acid]: the concentration for half-maximal inhibition (IC50) (usually the point on the concentration scale where inhibition reaches its midpoint) on MMP-12 was determined as 33 nM; at MMP-13 (setting [1]) it was 3.7 nM; at MMP-1, 24000 nM; on MMP-2, 581 nM; at MMP-14 it was 5450 nM.
As to `CC#Cc1cccc2oc(C(=O)Nc3ccc(-c4ccc(S(=O)(=O)N[C@H](C(=O)O)C(C)C)cc4)cc3)c(C)c12` [Example 21, L-3-Methyl-2-{4′-[(3-methyl-4-prop-1-ynyl-benzofuran-2-carbonyl)-amino]-biphenyl-4-sulfonylamino}-butyric acid], the IC50 came out at 175 nM at MMP-12, 9.5 nM at MMP-13 (setting [1]) and 15000 nM at MMP-2.
For `COCC#Cc1cccc2oc(C(=O)Nc3ccc(-c4ccc(S(=O)(=O)N[C@H](C(=O)O)C(C)C)cc4)cc3)c(C)c12` [Example 22, L-2-(4′-{[4-(3-Methoxy-prop-1-ynyl)-3-methyl-benzofuran-2-carbonyl]-amino}-biphenyl-4-sulfonylamino)-3-methyl-butyric acid] the same measures were 137 nM, 12 nM and 1940 nM.
For `Cc1c(C(=O)Nc2ccc(-c3ccc(S(=O)(=O)N[C@H](C(=O)O)C(C)C)cc3)cc2)oc2cccc(C#CCN(C)C)c12` [Example 31, L-2-(4′-{[4-(3-Dimethylamino-prop-1-ynyl)-3-methyl-benzofuran-2-carbonyl]-amino}-biphenyl-4-sulfonylamino)-3-methyl-butyric acid] the same measures were 155 nM, 16 nM and 1450 nM.
The matching figures for `Cc1c(C(=O)Nc2ccc(-c3ccc(S(=O)(=O)N[C@H](C(=O)O)C(C)C)cc3)cc2)oc2cccc(NS(C)(=O)=O)c12` [Example 36, L-2-{4′-[(4-Methanesulfonylamino-3-methyl-benzofuran-2-carbonyl)-amino]-biphenyl-4-sulfonylamino}-3-methyl-butyric acid]: 126 nM, 11 nM and 2250 nM.
Consider `Cc1c(C(=O)Nc2ccc(-c3ccc(S(=O)(=O)N[C@H](C(=O)O)C(C)C)cc3)cc2)oc2cccc(C(N)=O)c12` [Example 46, L-2-{4′-[(4-Carbamoyl-3-methyl-benzofuran-2-carbonyl)-amino]-biphenyl-4-sulfonylamino}-3-methyl-butyric acid], for which the IC50 at MMP-12 came to 187 nM; on MMP-13 (setting [1]), 14 nM; against MMP-1, 20200 nM; on MMP-2, 1000 nM; at MMP-14 (setting [2]), 24800 nM.
As to `Cc1c(C(=O)Nc2ccc(-c3ccc(S(=O)(=O)N[C@H](C(=O)O)C(C)C)cc3)cc2)oc2cccc(NC(=O)C3CC3)c12` [Example 47, L-2-(4′-{[4-(Cyclopropanecarbonyl-amino)-3-methyl-benzofuran-2-carbonyl]-amino}-biphenyl-4-sulfonylamino)-3-methyl-butyric acid], the half-inhibitory concentration (IC50) at MMP-12 worked out at 438 nM; on MMP-13 (setting [1]), 32 nM; on MMP-2, 4290 nM.
The matching figures for `CC(=O)Nc1cccc2oc(C(=O)Nc3ccc(-c4ccc(S(=O)(=O)N[C@H](C(=O)O)C(C)C)cc4)cc3)c(C)c12` [Example 48, L-2-{4′-[(4-Acetylamino-3-methyl-benzofuran-2-carbonyl)-amino]-biphenyl-4-sulfonylamino}-3-methyl-butyric acid]: 226 nM, 25 nM and 3810 nM.
For `Cc1c(C(=O)Nc2ccc(-c3ccc(S(=O)(=O)N[C@H](C(=O)O)C(C)C)cc3)cc2)oc2cccc(OCC3CC3)c12` [Example 51, L-2-{4′-[(4-Cyclopropylmethoxy-3-methyl-benzofuran-2-carbonyl)-amino]-biphenyl-4-sulfonylamino}-3-methyl-butyric acid], the IC50 at MMP-12 is 187 nM; on MMP-13 (setting [1]), 11 nM; on MMP-2 it was 7110 nM.
With `Cc1nn(C)c2sc(C(=O)Nc3ccc(-c4ccc(S(=O)(=O)N[C@H](C(=O)O)C(C)C)cc4)cc3)cc12` [Example 80, (S)-2-{4′-[(1,3-Dimethyl-1H-thieno[2,3-c]pyrazole-5-carbonyl)-amino]-biphenyl-4-sulfonylamino}-3-methyl-butyric acid], the figures for the IC50 on MMP-12, at MMP-13 (setting [1]) and at MMP-2 were 51 nM, 43 nM and 4350 nM, respectively.
For `COc1cccc2oc(C(=O)Nc3ccc(-c4ccc(S(=O)(=O)N[C@H](C(=O)O)C(C)C)cc4)cc3)c(C)c12` [Example 105, (S)-2-{4′-[(4-Methoxy-3-methyl-benzofuran-2-carbonyl)-amino]-biphenyl-4-sulfonylamino}-3-methyl-butyric acid] the same measures were 60 nM, 9.5 nM and 1050 nM.
Turning to `CCOc1cccc2oc(C(=O)Nc3ccc(-c4ccc(S(=O)(=O)N[C@H](C(=O)O)C(C)C)cc4)cc3)c(C)c12` [Example 106, (S)-2-{4′-[(4-ethoxy-3-methyl-benzofuran-2-carbonyl)-amino]-biphenyl-4-sulfonylamino}-3-methyl-butyric acid], the concentration for half-maximal inhibition (IC50) is 121 nM at MMP-12, 7.4 nM at MMP-13 (setting [1]) and 3590 nM on MMP-2.
As for `Cc1c(C(=O)Nc2ccc(-c3ccc(S(=O)(=O)N[C@H](C(=O)O)C(C)C)cc3)cc2)oc2cccc(-c3cccnc3)c12` [Example 111, (S)-3-methyl-2-{4′-[(3-methyl-4-pyridin-3-yl-benzofuran-2-carbonyl)-amino]-biphenyl-4-sulfonylamino}-butyric acid], the IC50 on MMP-12 worked out at 84 nM; on MMP-13 (setting [1]), 4 nM; against MMP-1, 22000 nM; on MMP-2, 1340 nM; at MMP-14 (setting [2]), 7310 nM.
In the case of `COc1c(Cl)ccc2oc(C(=O)Nc3ccc(-c4ccc(S(=O)(=O)N[C@H](C(=O)O)C(C)C)cc4)cc3)c(C)c12` [Example 116, (S)-2-{4′-[(5-Chloro-4-methoxy-3-methyl-benzofuran-2-carbonyl)-amino]-biphenyl-4-sulfonylamino}-3-methyl-butyric acid], the concentration for half-maximal inhibition (IC50) at MMP-12 was determined as 50 nM; on MMP-13 (setting [1]), 1.9 nM; at MMP-1 (read-out: MMP-1 IC50, recombinant human catalytic domain of MMP-1), 34100 nM; on MMP-2, 1490 nM; on MMP-14 (setting [2]), 12400 nM.
For `Cc1ccc2oc(C(=O)Nc3ccc(-c4ccc(S(=O)(=O)N[C@H](C(=O)O)C(C)C)cc4)cc3)nc2c1` [Example 129, (S)-3-Methyl-2-{4′-[(5-methyl-benzooxazole-2-carbonyl)-amino]-biphenyl-4-sulfonylamino}-butyric acid], the figures for the IC50 at MMP-12, on MMP-13 (setting [1]) and on MMP-2 were 1.9 nM, 0.8 nM and 116 nM, respectively.
On to `CC(C)[C@H](NS(=O)(=O)c1ccc(-c2ccc(NC(=O)c3nc4ccccc4s3)cc2)cc1)C(=O)O` [Example 151, L-2-{4′-[(Benzothiazole-2-carbonyl)-amino]-biphenyl-4-sulfonylamino}-3-methyl-butyric acid], for which the half-maximal inhibitory concentration (IC50) on MMP-12 was determined as 11 nM; on MMP-13 (setting [1]) it was 0.4 nM; against MMP-1, 70000 nM; on MMP-14 (setting [2]), 35000 nM.
Regarding `CC(C)[C@@H](NS(=O)(=O)c1ccc(-c2ccc(NC(=O)c3nc4ccccc4s3)cc2)cc1)C(=O)O` [Example 152, D-2-{4′-[(Benzothiazole-2-carbonyl)-amino]-biphenyl-4-sulfonylamino}-3-methyl-butyric acid], the IC50 at MMP-12 is 1.1 nM; on MMP-13 (setting [1]), 0.7 nM.
On to `Cc1c(C(=O)Nc2ccc(-c3ccc(S(=O)(=O)N[C@H](C(=O)O)C(C)C)cc3)cc2)oc2cccc(Oc3ccccc3)c12` [Example 155, L-3-Methyl-2-{4′-[(3-methyl-4-phenoxy-benzofuran-2-carbonyl)-amino]-biphenyl-4-sulfonylamino}-butyric acid], for which the IC50 at MMP-12 stood at 508 nM; on MMP-13 (MMP-13 IC50, recombinant human catalytic domain of MMP-13) it was 19 nM; at MMP-1, 25000 nM; at MMP-2, 5000 nM; on MMP-14 (setting [2]) it was 8000 nM.
On to `CC(C)[C@H](NS(=O)(=O)c1ccc(-c2ccc(NC(=O)c3ccco3)cc2)cc1)C(=O)O` [Example 175, (S)-2-{4′-[(Furan-2-carbonyl)-amino]-biphenyl-4-sulfonylamino}-3-methyl-butyric acid], for which the 50% inhibitory concentration (IC50) was 11 nM on MMP-13 (setting [1]), 3090 nM on MMP-1, 5.7 nM at MMP-2 and 2910 nM at MMP-14 (setting [2]).
